pIC50: −log10 of the molar value. In brackets after ≈: the same amount, converted by molar mass.

The subject of one assay is DU-145. In words: Cytotoxicity against human DU-145 cells incubated for 48 hrs by MTT assay. It is filed as functional, cell-based. As to conditions: DU-145, 48 h. On the technique in general: Tetrazolium dyes change colour on reduction, which living cells bring about.
The test system of the next assay is A549. As to the kind of experiment: Cytotoxicity against human A549 cells incubated for 48 hrs by MTT assay. Format: functional, cell-based. To be noted: A549, 48 h.
The next assay deals with MCF7. As to the kind of experiment: Cytotoxicity against human MCF7 cells incubated for 48 hrs by MTT assay. Format: functional, cell-based. As to conditions: MCF7, 48 h.
Assay [1] has as its system HeLa. As to the kind of experiment: Cytotoxicity against human HeLa cells incubated for 48 hrs by MTT assay. It is filed as functional, cell-based.
For another assay, the system named is Salmonella sp. In words: Antibacterial activity against Salmonella sp. NCIM 2501 by microdilution broth method. Format: functional.
The subject of assay [2] is Staphylococcus aureus. In words: Antibacterial activity against Staphylococcus aureus NCIM5021 by microdilution broth method. Format: functional. A general note: In broth dilution the organism is exposed to a series of concentrations in liquid medium.
For assay [3], the system named is Escherichia coli. In words: Antibacterial activity against Escherichia coli NCIM 2931 by microdilution broth method. It is filed as functional.
A further assay concerns Proteus vulgaris. As to the kind of experiment: Antibacterial activity against Proteus vulgaris NCIM 2813 by microdilution broth method. It is filed as functional.
Assay [4] deals with Pseudomonas aeruginosa. In words: Antibacterial activity against Pseudomonas aeruginosa NCIM 5029 by microdilution broth method. Format: functional.
The subject of another assay is Candida metapsilosis. In words: Antifungal activity against Candida metapsilosis assessed as zone of inhibition at 25 ug/ml. Format: functional. As to conditions: Lodderomyces metapsilosis, read-out: DIZ.
For another assay, the system named is Aspergillus niger. As to the kind of experiment: Antifungal activity against Aspergillus niger assessed as zone of inhibition at 25 ug/ml. To be noted: read-out: DIZ. Format: functional.
Assay [5] has as its system HeLa. As to the kind of experiment: Antiproliferative activity against human HeLa cells. Format: functional, cell-based.
The subject of the next assay is MDA-MB-231. In words: cells. It is filed as functional, cell-based. To be noted: Homo sapiens.
The next assay relates to Nakaseomyces glabratus. As to the kind of experiment: Antifungal activity against Candida glabrata. It is filed as functional.
In the next assay the test system is Candida tropicalis. As to the kind of experiment: Antifungal activity against Candida tropicalis. It is filed as functional.
For assay [6], the system named is Candida albicans. In words: Antifungal activity against Candida albicans. It is filed as functional.
The test system of assay [7] is Bacillus subtilis. In words: Antibacterial activity against Bacillus subtilis. Format: functional.
In assay [8] the test system is Staphylococcus aureus. As to the kind of experiment: microbe, parasite or virus in culture.
Assay [9] relates to Escherichia coli. As to the kind of experiment: Antibacterial activity against Escherichia coli assessed as zone of inhibition. It is filed as functional.
The test system of assay [10] is Staphylococcus aureus. In words: Antibacterial activity against Staphylococcus aureus assessed as zone of inhibition. It is filed as functional.
Assay [11] relates to Staphylococcus epidermidis. In words: Antibacterial activity against Staphylococcus epidermidis ATCC 12228. Format: functional.
The next assay relates to Micrococcus luteus. As to the kind of experiment: Antibacterial activity against Micrococcus luteus PTCC 1110. It is filed as functional.
The next assay deals with Streptococcus mutans. As to the kind of experiment: Antibacterial activity against Streptococcus mutans PTCC 1601. Format: functional.
The test system of the next assay is Klebsiella pneumoniae. In words: Antibacterial activity against Klebsiella pneumoniae ATCC 29655. Format: functional.
The test system of assay [12] is Pseudomonas aeruginosa. As to the kind of experiment: Antibacterial activity against Pseudomonas aeruginosa ATCC 85327. It is filed as functional.
Assay [13] has as its system Bacillus subtilis. In words: Antibacterial activity against Bacillus subtilis ATCC 465. It is filed as functional.
The subject of assay [14] is Staphylococcus aureus. As to the kind of experiment: Antibacterial activity against Staphylococcus aureus ATCC 25923. It is filed as functional.
Assay [15] has as its system Escherichia coli. As to the kind of experiment: Antimicrobial activity against Escherichia coli ATCC 25922. It is filed as functional.
The subject of the next assay is Bacillus pumilus. As to the kind of experiment: Antibacterial activity against Bacillus pumilus PTCC 1114. Format: functional.
Another assay has as its system Enterococcus faecalis. As to the kind of experiment: Antibacterial activity against Enterococcus faecalis ATCC 29737. Format: functional.
Another assay addresses Cholinesterase (Homo sapiens, UniProt P06276). As to the kind of experiment: Inhibition of BChE (unknown origin).
Another assay deals with Acetylcholinesterase (Homo sapiens, UniProt P22303). As to the kind of experiment: Inhibition of AChE (unknown origin).
For assay [16], the system named is Candida albicans. As to the kind of experiment: Antifungal activity against Candida albicans RCMB 05036 assessed as zone of inhibition. It is filed as functional.
The test system of the next assay is Aspergillus fumigatus. As to the kind of experiment: Antifungal activity against Aspergillus fumigatus RCMB 02568 assessed as zone of inhibition. It is filed as functional.
A further assay has as its system Geotrichum candidum. As to the kind of experiment: Antifungal activity against Geotrichum candidum RCMB 05097 assessed as zone of inhibition. Format: functional.
Assay [17] has as its system Syncephalastrum racemosum. As to the kind of experiment: Antifungal activity against Syncephalastrum racemosum RCMB 05922 assessed as zone of inhibition. Format: functional.

Acetylcholinesterase, sequence (P22303 whole entry): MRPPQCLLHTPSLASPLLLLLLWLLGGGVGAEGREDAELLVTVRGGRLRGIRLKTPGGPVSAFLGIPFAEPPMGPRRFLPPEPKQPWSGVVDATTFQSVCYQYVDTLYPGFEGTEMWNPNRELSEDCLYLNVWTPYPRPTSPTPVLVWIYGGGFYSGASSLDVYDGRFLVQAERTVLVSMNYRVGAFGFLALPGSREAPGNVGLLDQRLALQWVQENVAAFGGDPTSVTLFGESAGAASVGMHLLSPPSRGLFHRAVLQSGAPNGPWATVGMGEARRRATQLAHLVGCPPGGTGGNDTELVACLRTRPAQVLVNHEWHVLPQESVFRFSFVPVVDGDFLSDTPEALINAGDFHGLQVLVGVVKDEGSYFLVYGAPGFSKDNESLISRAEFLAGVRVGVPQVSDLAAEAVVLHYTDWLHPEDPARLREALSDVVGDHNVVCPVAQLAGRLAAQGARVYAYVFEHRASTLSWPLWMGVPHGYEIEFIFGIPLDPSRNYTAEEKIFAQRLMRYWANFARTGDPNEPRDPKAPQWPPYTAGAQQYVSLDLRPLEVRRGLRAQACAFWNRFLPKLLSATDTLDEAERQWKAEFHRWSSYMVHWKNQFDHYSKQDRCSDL
Cholinesterase, sequence (P06276 whole entry): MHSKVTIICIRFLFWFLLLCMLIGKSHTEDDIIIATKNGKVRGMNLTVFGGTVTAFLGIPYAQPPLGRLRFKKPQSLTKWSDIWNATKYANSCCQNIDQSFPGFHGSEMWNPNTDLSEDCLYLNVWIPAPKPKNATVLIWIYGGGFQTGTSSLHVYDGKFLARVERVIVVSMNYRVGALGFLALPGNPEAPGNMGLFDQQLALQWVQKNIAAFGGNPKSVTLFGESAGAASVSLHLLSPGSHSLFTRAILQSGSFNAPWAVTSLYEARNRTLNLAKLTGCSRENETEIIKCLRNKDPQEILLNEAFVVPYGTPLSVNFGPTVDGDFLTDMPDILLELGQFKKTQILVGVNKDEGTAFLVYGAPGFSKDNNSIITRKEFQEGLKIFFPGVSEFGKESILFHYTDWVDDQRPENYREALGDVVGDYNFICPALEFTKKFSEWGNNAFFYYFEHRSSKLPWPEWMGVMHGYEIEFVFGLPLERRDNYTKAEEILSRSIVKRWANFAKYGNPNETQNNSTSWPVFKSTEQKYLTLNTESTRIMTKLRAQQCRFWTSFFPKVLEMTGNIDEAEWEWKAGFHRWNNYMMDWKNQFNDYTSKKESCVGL
Description for MDA-MB-231: Antiproliferative activity against human MDA-MB-231 cells

As a reminder, the pIC50 is the negative decadic logarithm of the IC50, by convention in mol/L. Low values mean a high IC50, high ones a low IC50. Take `O=C1OCC2=C1C1(Nc3ccc(Cl)cc3N2)C(=O)Nc2ccccc21` (stereo not given): the pIC50 in the assay on DU-145 was 5.77; with A549, 5.54; in the assay with MCF7 it was 5.02; in the assay with HeLa [1] it was 5.27.
Consider `O=C1Nc2ccccc2[C@@]1(O)[C@@]1(OCc2ccc(Cl)cc2)C(=O)Nc2ccccc21`, for which the MIC in the assay on Salmonella sp. stood at 0.074 µg/mL (≈ 0.176 µM); in the assay with Staphylococcus aureus [2], 0.149 µg/mL (≈ 0.354 µM); against Escherichia coli [3], 0.074 µg/mL (≈ 0.176 µM); in the assay on Proteus vulgaris, 0.149 µg/mL (≈ 0.354 µM); with Pseudomonas aeruginosa [4] it was 0.074 µg/mL (≈ 0.176 µM).
Turning to `CCOC1=Nc2ccc(Br)cc2/C1=C\C(=O)c1ccccc1O`, the zone of inhibition at 25 µg/mL in the assay on Candida metapsilosis and in the assay on Aspergillus niger was 11 mm in each case.
For the compound `N#CC1=C(N)Oc2c(ccc3[nH]c4ccccc4c23)C12C(=O)N(Cc1cn(Cc3ccc(C(F)(F)F)cc3)nn1)c1ccccc12` (stereo not given), the pIC50 in the assay on HeLa [5] is 5.46; in the assay on MDA-MB-231 it was 4.21.
The corresponding values for `N#CC1=C(N)Oc2c(ccc3[nH]c4ccccc4c23)C12C(=O)N(Cc1cn(Cc3ccc([N+](=O)[O-])cc3)nn1)c1ccccc12` (stereo not given) are 5.20 and 4.29.
In the case of `Cc1ccc(C2C3CCCN3C3(C(=O)Nc4ccccc43)C2C(=O)c2ccc(-c3ccc(F)cc3F)cc2)cc1` (stereo not given), the MIC in the assay with Nakaseomyces glabratus came out at 25 µg/mL (≈ 46.8 µM); against Candida tropicalis, 25 µg/mL (≈ 46.8 µM); in the assay with Candida albicans [6], 12.5 µg/mL (≈ 23.4 µM).
With `Cc1nn(-c2ccccc2)c2c1C1(C(=O)Nc3ccc(Br)cc31)c1c(C)nn(-c3ccccc3)c1O2`, the MIC in the assay with Bacillus subtilis [7] was 256 µg/mL (≈ 475 µM); against Staphylococcus aureus [8], 64 µg/mL (≈ 119 µM).
On to `CCOC1=Nc2ccc(Br)cc2/C1=C\C(=O)c1cccc2ccccc12`, for which the “diameter of the inhibition zone (DIZ)” value in the assay with Escherichia coli [9] and in the assay on Staphylococcus aureus [10] was 6 mm throughout.
Consider `CC(=O)O[C@H]1C(=O)[C@@]2(C)[C@H]([C@H](OC(=O)c3ccccc3)[C@]3(O)C[C@H](OC(=O)[C@H](O)[C@@H](NC(=O)c4ccccc4)c4ccccc4)C(C)=C1C3(C)C)[C@]1(OC(C)=O)CO[C@@H]1C[C@@H]2O` [PACLITAXEL], for which the negative-log IC50 (pIC50) is 8.22 in the assay on HeLa [5] and 7.00 with MDA-MB-231.
`O=C1c2c(Cl)cccc2NC2(C(=O)Nc3ccc([N+](=O)[O-])cc32)N1Nc1ccccc1` (stereo not given): the MIC is 2 µg/mL (≈ 4.59 µM) in assay [11]; 2 µg/mL (≈ 4.59 µM) with Micrococcus luteus; 8 µg/mL (≈ 18.4 µM) with Streptococcus mutans; 16 µg/mL (≈ 36.7 µM) against Klebsiella pneumoniae; 16 µg/mL (≈ 36.7 µM) against Pseudomonas aeruginosa [12]; below 2 µg/mL against Bacillus subtilis [13]. Further, the MIC against Staphylococcus aureus [14] was 2 µg/mL (≈ 4.59 µM); in the assay on Escherichia coli [15] it was below 2 µg/mL; in the assay with Bacillus pumilus, below 2 µg/mL; against Enterococcus faecalis, 8 µg/mL (≈ 18.4 µM).
Consider `COC1=CC(=O)C[C@@H](C)[C@]12Oc1c(Cl)c(OC)cc(OC)c1C2=O` [GRISEOFULVIN], for which the zone of inhibition at 25 µg/mL in the assay with Candida metapsilosis and in the assay on Aspergillus niger was 10 mm each time.
In the case of `CCOC1=Nc2ccccc2/C1=C\C(=O)c1ccc([N+](=O)[O-])cc1`, the zone of inhibition at 25 µg/mL with Candida metapsilosis and in the assay on Aspergillus niger was 11 mm each time.
As for `COc1cc2c(cc1OC)C(=O)[C@]1(C2)[C@H](c2ccc(C)cc2)[C@H](Cc2c[nH]c3ccccc23)NC12C(=O)Nc1ccccc12` (stereo not given in full), the values for the pIC50 at Cholinesterase and against Acetylcholinesterase were 5.65 and 4.85, respectively.
As to `COc1cc2c(cc1OC)C(=O)[C@]1(C2)[C@H](c2cccc([N+](=O)[O-])c2)[C@H](Cc2c[nH]c3ccccc23)NC12C(=O)Nc1ccccc12` (stereo not given in full), the pIC50 was 4.55 against Cholinesterase and 5.72 on Acetylcholinesterase.
Take `O=C1NC(=S)S[C@]12C1CCCN1[C@@]1(C(=O)Nc3ccccc31)[C@H]2c1ccccc1` (stereo not given in full): the “diameter of the inhibition zone (DIZ)” value was 25 mm with Candida albicans [16], 16 mm in the assay on Aspergillus fumigatus, 24 mm in the assay on Geotrichum candidum and 14 mm in [17].
For `COc1cc([C@@H]2c3cc4c(cc3[C@@H](O[C@@H]3O[C@@H]5CO[C@@H](C)O[C@H]5[C@H](O)[C@H]3O)[C@H]3COC(=O)[C@H]23)OCO4)cc(OC)c1O` [ETOPOSIDE], the pIC50 with DU-145 was 5.68; with A549 it was 5.66; in the assay on MCF7, 5.80; with HeLa [1] it was 6.00.

The values above are taken from ChEMBL document CHEMBL5226286, “The application of isatin-based multicomponent-reactions in the quest for new bioactive and druglike molecules” (Eur J Med Chem, 2021).
